Experimental data from patent publication US10030016B2 (Sunesis Pharmaceuticals, Inc., priority 2009, dated 2018).
Read-outs that look alike come from different tables or passages of the source.

Key:
PDK1 = PDK1 (Homo sapiens (Human), UniProt O15530); assay: PDK1 kinase assay (coupled PDK1/AKT/FAM-crosstide assay, IMAP fluorescence polarization); format: biochemical; conditions: inhibition of PDK1 in vitro
How it was run: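 Coupled cascade: 0.75 nM PDK1 (51-359) → 10 nM AKT2 (140-467-PIFtide) → 100 nM FAM-crosstide. ATP 40 μM, 25° C, 30 min. IMAP FP (ex 485/em 530), 2 h binding. ΔmP vs conc, 4-param fit.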

[1] = system: phospho-akt (Thr308) in PC-3 cells; assay: Inhibition of phospho-akt (Thr308) in PC-3 cells, MSD phospho-akt 308 ELISA kit; format: cell-based; conditions: Homo sapiens, inhibition of P308 Akt in PC-3 cells using MSD, 2 hours, no serum, read-out: EC50
How it was run: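 Read-out is MSD electrochemiluminescence of Akt phosphorylated at Thr308 in lysates of PC-3 cells treated 2 h with compound in serum-free medium. Wortmannin at 5 μM defined the low control and DMSO the high control.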

Chain of PDK1 (O15530 51-359): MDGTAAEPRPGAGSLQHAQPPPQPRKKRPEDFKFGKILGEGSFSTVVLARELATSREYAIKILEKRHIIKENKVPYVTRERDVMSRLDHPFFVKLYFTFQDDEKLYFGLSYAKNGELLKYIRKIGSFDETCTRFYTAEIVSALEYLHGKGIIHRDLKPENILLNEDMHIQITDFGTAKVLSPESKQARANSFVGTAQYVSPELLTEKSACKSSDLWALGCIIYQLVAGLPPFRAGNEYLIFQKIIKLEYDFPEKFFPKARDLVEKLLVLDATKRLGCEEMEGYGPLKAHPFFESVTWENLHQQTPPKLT

| IC50 (PDK1) [µM] | EC50 [1] [µM] | EC50 ([1]; PC-3, 2 h) [µM] | Structure (SMILES) |
| --- | --- | --- | --- |
| < 0.1 | < 1 |  | CNc1n[nH]c2ncc(-c3ccc(CNc4ncc(C#N)nc4C(=O)N[C@@H](C)c4ccc(F)c(F)c4)cc3)cc12 [Example 52, (S)-6-cyano-N-(1-(3,4-difluorophenyl)ethyl)-3-(4-(3-(methylamino)-1H-pyrazolo[3,4-b]pyridin-5-yl)benzylamino)pyrazine-2-carboxamide] |
| < 0.1 | 1 to 10 |  | CC(C)Oc1cc(CNc2ncccc2C(=O)NCc2ccc(F)c(F)c2)cc(-c2c[nH]c3ncc(-c4ccn[nH]4)cc23)c1 [Example 53, 2-(3-(5-(1H-pyrazol-5-yl)-1H-pyrrolo[2,3-b]pyridin-3-yl)-5-isopropoxybenzylamino)-N-(3,4-difluorobenzyl)nicotinamide] |
| < 0.1 | < 1 |  | O=C(NCc1ccc(F)c(F)c1)c1cccnc1NCc1cc(-c2c[nH]c3ncc(-c4ccn[nH]4)cc23)ccn1 [Example 54, 2-((4-(5-(1H-pyrazol-5-yl)-1H-pyrrolo[2,3-b]pyridin-3-yl)pyridin-2-yl)methylamino)-N-(3,4-difluorobenzyl)nicotinamide] |
| < 0.1 | < 1 |  | CN(C)CCCn1cc(-c2ccc(CNc3ncc(C(F)(F)F)cc3C(=O)NCc3ccc(F)c(F)c3)cc2)c2c(N)ncnc21 [Example 55, 2-(4-(4-amino-7-(3-(dimethylamino)propyl)-7H-pyrrolo[2,3-d]pyrimidin-5-yl)benzylamino)-N-(3,4-difluorobenzyl)-5-(trifluoromethyl)nicotinamide] |
| < 0.1 | < 1 |  | Cn1cc(-c2ccc(CNc3ncc(C(F)(F)F)cc3C(=O)Nc3ccc(F)cc3)cn2)c2c(N)ncnc21 [Example 56, 2-(((6-(4-amino-7-methyl-7H-pyrrolo[2,3-d]pyrimidin-5-yl)pyridin-3-yl)methyl)amino)-N-(4-fluorophenyl)-5-(trifluoromethyl)nicotinamide] |
| < 0.1 | < 1 |  | Nc1n[nH]c2ncc(-c3ccc(CNc4ncc(C(F)(F)F)cc4C(=O)Nc4ccc(F)cc4)cn3)cc12 [Example 57, 2-(((6-(3-amino-1H-pyrazolo[3,4-b]pyridin-5-yl)pyridin-3-yl)methyl)amino)-N-(4-fluorophenyl)-5-(trifluoromethyl)nicotinamide] |
| < 0.1 | < 1 |  | C[C@H](NC(=O)c1nc(C#N)cnc1NCc1ccc(-c2cnc3[nH]nc(N)c3c2)nc1)c1ccc(F)c(F)c1 [Example 58, (S)-3-(((6-(3-amino-1H-pyrazolo[3,4-b]pyridin-5-yl)pyridin-3-yl)methyl)amino)-6-cyano-N-(1-(3,4-difluorophenyl)ethyl) pyrazine-2-carboxamide] |
| < 0.1 | < 1 |  | Nc1n[nH]c2ncc(-c3ccc(CNc4ncc(C(F)(F)F)cc4C(=O)Nc4ccc(F)cn4)cc3)cc12 [Example 59, 2-(4-(3-amino-1H-pyrazolo[3,4-b]pyridin-5-yl)benzylamino)-N-(5-fluoropyridin-2-yl)-5-(trifluoromethyl)nicotinamide] |
| < 0.1 | < 1 |  | C[C@H](NC(=O)c1nc(C#N)cnc1NCC1CCC(c2cnc3[nH]nc(N)c3c2)CC1)c1ccc(F)c(F)c1 (stereo partly drawn) [Example 60, (S)-3-((4-(3-amino-1H-pyrazolo[3,4-b]pyridin-5-yl)cyclohexyl)methylamino)-6-cyano-N-(1-(3,4-difluorophenyl)ethyl)pyrazine-2-carboxamide] |
| 1 to 5 | > 10 |  | C[C@H](NC(=O)c1cc(C#N)cnc1NCC1CCN(c2cnc(N)cn2)CC1)c1ccc(F)cc1 [Example 61, (S)-2-(((1-(5-aminopyrazin-2-yl)piperidin-4-yl)methyl)amino)-5-cyano-N-(1-(4-fluorophenyl)ethyl)nicotinamide] |
| < 0.1 | < 1 |  | C[C@H](NC(=O)c1nc(C#N)cnc1NCc1ccc(-c2cnc3[nH]nc(N(C)C)c3c2)cc1)c1ccc(F)c(F)c1 [Example 62, (S)-6-cyano-N-(1-(3,4-difluorophenyl)ethyl)-3-(4-(3-(dimethylamino)-1H-pyrazolo[3,4-b]pyridin-5-yl)benzylamino)pyrazine-2-carboxamide] |
| < 0.1 | > 10 |  | C[C@H](NC(=O)c1cc(C#N)cnc1NCc1cnc(-c2cnc3[nH]ncc3c2)cn1)c1ccc(F)cc1 [Example 63, 5-Cyano-N-[(S)-1-(4-fluoro-phenyl)-ethyl]-2-{[5-(1H-pyrazolo[3,4-b]pyridin-5-yl)-pyrazin-2-ylmethyl]-amino}-nicotinamide] |
| > 5 | > 10 |  | C[C@H](NC(=O)c1cc(C#N)cnc1NCc1ncc(-c2cnc3[nH]ncc3c2)cn1)c1ccc(F)cc1 [Example 64, 5-Cyano-N-[(S)-1-(4-fluoro-phenyl)-ethyl]-2-{[5-(1H-pyrazolo[3,4-b]pyridin-5-yl)-pyrimidin-2-ylmethyl]-amino}-nicotinamide] |
| < 0.1 | < 1 |  | C[C@H](NC(=O)c1cc(C#N)cnc1NCc1ccc(-c2cnc3[nH]ncc3c2)nc1)c1ccc(F)cc1 [Example 65, 5-Cyano-N-[(S)-1-(4-fluoro-phenyl)-ethyl]-2-{[6-(1H-pyrazolo[3,4-b]pyridin-5-yl)-pyridin-3-ylmethyl]-amino}-nicotinamide] |
| < 0.1 | < 1 |  | C[C@H](NC(=O)c1cc(C#N)cnc1NCc1ccc(-c2cnc3[nH]nc(N)c3c2)nc1)c1ccc(F)cc1 [Example 66, 2-{[6-(3-Amino-1H-pyrazolo[3,4-b]pyridin-5-yl)-pyridin-3-ylmethyl]-amino}-5-cyano-N-[(S)-1-(4-fluoro-phenyl)-ethyl]-nicotinamide] |
| < 0.1 | 1 to 10 |  | C[C@H](NC(=O)c1cc(C#N)cnc1NCc1cnc(-c2cnc3[nH]ncc3c2)s1)c1ccc(F)cc1 [Example 67, 5-Cyano-N-[(S)-1-(4-fluoro-phenyl)-ethyl]-2-{[2-(1H-pyrazolo[3,4-b]pyridin-5-yl)-thiazol-5-ylmethyl]-amino}-nicotinamide] |
| < 0.1 | 1 to 10 |  | C[C@H](NC(=O)c1cc(C#N)cnc1NCc1ccc(-c2ccc(N)nc2)nc1)c1ccc(F)cc1 [Example 68, 2-[(6′-Amino-[2,3′]bipyridinyl-5-ylmethyl)-amino]-5-cyano-N-[(S)-1-(4-fluoro-phenyl)-ethyl]-nicotinamide] |
| 0.1 to 1 | > 10 |  | C[C@H](NC(=O)c1cc(C#N)cnc1NCc1cnc(-c2cnc3[nH]ncc3c2)nc1)c1ccc(F)cc1 [Example 69, 5-Cyano-N-[(S)-1-(4-fluoro-phenyl)-ethyl]-2-{[2-(1H-pyrazolo[3,4-b]pyridin-5-yl)-pyrimidin-5-ylmethyl]-amino}-nicotinamide] |
| < 0.1 | < 1 |  | C[C@H](NC(=O)c1cc(C#N)cnc1NCc1ccc(-c2cnc(N)c(CCCN)n2)cc1)c1ccc(F)cc1 [Example 70, 2-{4-[5-Amino-6-(3-amino-propyl)-pyrazin-2-yl]-benzylamino}-5-cyano-N-[(S)-1-(4-fluoro-phenyl)-ethyl]-nicotinamide] |
| < 0.1 | < 1 |  | C[C@H](NC(=O)c1cc(C#N)cnc1NCc1ccc(-c2cnc(N)c(CCCCN)n2)cc1)c1ccc(F)cc1 [Example 71, 2-{4-[5-Amino-6-(4-amino-butyl)-pyrazin-2-yl]-benzyl-amino}-5-cyano-N-[(S)-1-(4-fluoro-phenyl)-ethyl]-nicotinamide] |
| < 0.1 | 1 to 10 |  | NCCCc1nc(-c2ccc(CNc3ncc(C(F)(F)F)cc3C(=O)NCc3ccc(F)c(F)c3)cc2)cnc1N [Example 72, 2-{4-[5-Amino-6-(3-amino-propyl)-pyrazin-2-yl]-benzyl-amino}-N-(3,4-difluoro-benzyl)-5-trifluoromethyl-nicotinamide] |
| < 0.1 | < 1 |  | NCCCc1nc(-c2ccc(CNc3ncc(C(F)(F)F)cc3C(=O)Nc3ccc(F)cc3)cc2)cnc1N [Example 73, 2-{4-[5-Amino-6-(3-amino-propyl)-pyrazin-2-yl]-benzyl-amino}-N-(4-fluoro-phenyl)-5-trifluoromethyl-nicotinamide] |
| 0.1 to 1 |  | 1 to 10 | C[C@H](NC(=O)c1cc(C#N)cnc1NCc1ccc(-c2cnc(N)c(CCCN)n2)nc1)c1ccc(F)cc1 [Example 74, 2-({6-[5-Amino-6-(3-amino-propyl)-pyrazin-2-yl]-pyridin-3-ylmethyl}-amino)-5-cyano-N-[(S)-1-(4-fluoro-phenyl)-ethyl]-nicotinamide] |
| < 0.1 | 1 to 10 |  | Nc1ncc(-c2ccc(CNc3ncc(C(F)(F)F)cc3C(=O)Nc3ccc(F)cc3)cc2)nc1CC[C@@H]1CCCN1 [Example 75, 2-{4-[5-Amino-6-((S)-2-pyrrolidin-2-yl-ethyl)-pyrazin-2-yl]-benzylamino}-N-(4-fluoro-phenyl)-5-trifluoromethyl-nicotinamide] |
| < 0.1 | < 1 |  | Nc1ncc(-c2ccc(CNc3ncc(C(F)(F)F)cc3C(=O)Nc3ccc(F)cc3)cc2)nc1CCC1CCNC1 (stereo not shown) [Example 76, 2-{4-[5-Amino-6-(2-pyrrolidin-3-yl-ethyl)-pyrazin-2-yl]-benzylamino}-N-(4-fluoro-phenyl)-5-trifluoromethyl-nicotinamide] |
| < 0.1 | 1 to 10 |  | Nc1ncc(-c2ccc(CNc3ncc(C(F)(F)F)cc3C(=O)Nc3ccc(F)cc3)cc2)nc1CCC1CCCNC1 (stereo not shown) [Example 77, 2-{4-[5-Amino-6-(2-piperidin-3-yl-ethyl)-pyrazin-2-yl]-benzylamino}-N-(4-fluoro-phenyl)-5-trifluoromethyl-nicotinamide] |
